{"source": "patent US9061997B2", "about": "“Quinolinone derivatives” (Centre National de la Recherche Scientifique, priority 2010, dated 2015)", "key": {"C3H10T1/2 cells [1]": {"system": "C3H10T1/2 cells", "test": "Enzymatic assay of alkaline phosphatase in 96-well plates (differentiation of C3H10T1/2 cells)", "assay_type": "cell-based", "details": "for EC50 / Emax: Mus musculus", "description": "(§1) The effect of the compounds of general formula (I) in accordance with the invention on the stimulation of osteogenesis was determined in vitro by analyzing the differentiation of the C3H10T1/2 pluripotent mesenchymal cell line.\n(§2) The test compounds of formula (I) were dissolved in dimethyl sulfoxide (DMSO) to a concentration of 2.5 mM, and then stored at a temperature of −20° C. until use.\n(§3) The C3H10T1/2 pluripotent fibroblast cell line (ATCC CCL 226) was cultured under the conditions recommended by the ATCC in DMEM culture medium supplemented with 10% of fetal calf serum at a temperature of 37° C. under an atmosphere at 5% CO2. 24 hours after seeding, the cells were stimulated for 6 days in the presence of the compounds of general formula (I) directly diluted in the culture medium. The activation by these compounds causes differentiation of the cell line to the osteoblast lineage and enables the latter to express alkaline phosphatase. Said alkaline phosphatase is then detected by histochemistry or enzymatic assay.\nThe C3H10T1/2 cells were seeded onto 96-well plates at a density of 5×10^3 cells per well. The compounds were applied at increasing concentrations ranging from 10 nM to 10 μM. The plates were then incubated for 6 days and the assays were then carried out in quadruplicate according to the methods previously described (Chen et al. 2002; Frank-Kamenetsky et al. 2002).\nThe cells were washed in cold phosphate buffer (PBS) and then lysed by sonication at 4° C. in 50 μl of solution containing 0.9% of NaCl and 0.2% of Triton X-100. The alkaline phosphatase activity in the resulting lysates was then measured according to the method described by Pepinsky et al. (Pepinsky et al. 1998). After the addition of 100 μl of reaction buffer (200 mM Tris-HCl; pH 10.5; 0.4 M of 2-amino-2-methylpropanol and 8 mM of MgCl2) and of 50 μl of substrate (4 mM of disodium p-nitrophenyl phosphate), the lysates were incubated at 37° C. for 60 min, and then the optical density (OD) was measured at a wavelength of 415 nm. By way of comparison, the activity of the SAG compound, which activates osteogenesis by acting on the Hedgehog pathway, was tested under the same conditions. The GraphPad Prism 4° software was used to plot the curves and to determine the effective concentrations 50 (EC50)."}, "C3H10T1/2 cells [2]": {"system": "C3H10T1/2 cells", "test": "Detection of alkaline phosphatase by histochemistry (differentiation of C3H10T1/2 cells)", "assay_type": "cell-based", "details": "10 μM, 6 days; intensities compound 4>compound 1>compound 8>compound 6; no DMSO-treated cell labeled", "description": "as §1, §2, §3\nFor this experiment, the cells are cultured in 6-well plates containing a glass cover slip treated for 1H with 0.05 mg/ml poly-D-lysine. The C3H10T1/2 cells are seeded at a density of 150 000 cells per well. The compounds were applied at a concentration of 10 μM. the Sigma staining kit (85L-3R) was used according to the protocol described. Briefly, after fixing the cells for 30 seconds with a solution of citrate/acetone (2-3) and then rinsing with double-distilled water, the staining is carried out for 30 min in the presence of a solution of Fast-Violet/Naphthol in the dark. The cover slips are then rinsed thoroughly with double-distilled water and then mounted in aqueous medium before being photographed on a DMRXA2 microscope (Leica Microsystems). The cells expressing alkaline phosphatase are stained red."}, "[3]": {"details": "C3H 10T1/2, 144 h, 6 days of stimulation, 10 nM to 10 μM, OD 415 nm, mean of 2 to 5 independent experiments, read-out: EC50 on the differentiation of C3H10T1/2 cells measured via alkaline phosphatase activity"}, "[4]": {"details": "C3H 10T1/2, 144 h, 6 days of stimulation, relative to compound 1 in the same experiment, mean of 2 to 5 independent experiments, read-out: Maximum stimulation, % of maximum activation of compound 1"}, "[5]": {"details": "dose-response curve produced in parallel with compound 1"}}, "note": "Like-named read-outs stand apart in the source and are kept apart here.", "data": [{"smiles": "CCCCCCn1c(=O)c(C(=O)Nc2ccc(C(=O)OCc3ccccc3)cc2)c(O)c2ccccc21", "note": "[Compound 7, benzyl 4-(1-hexyl-4-hydroxy-2-oxo-1,2-dihydroquinoline-3-carboxamido)benzoate]", "values": [{"measurement": "EC50", "setting": "C3H10T1/2 cells [1]; [3]", "value": 2, "unit": "µM"}, {"measurement": "Emax", "setting": "C3H10T1/2 cells [1]; [4]", "value": 47, "unit": "%"}]}, {"smiles": "CCOC(=O)c1ccc(NC(=O)c2c(O)c3ccccc3n(Cc3ccccc3)c2=O)cc1", "note": "[Compound 2, ethyl 4-(1-benzyl-4-hydroxy-2-oxo-1,2-dihydroquinoline-3-carboxamido)benzoate]", "values": [{"measurement": "EC50", "setting": "C3H10T1/2 cells [1]; [3]", "value": "> 3", "unit": "µM"}, {"measurement": "Emax", "setting": "C3H10T1/2 cells [1]; [4]", "value": 4, "unit": "%"}]}, {"smiles": "CCCCCCn1c(=O)c(C(=O)Nc2ccc(C(=O)NCCCC)cc2)c(O)c2ccccc21", "note": "[Compound 8, N-(4-(butylcarbamoyl)phenyl)-1-hexyl-4-hydroxy-2-oxo-1,2-dihydroquinoline-3-carboxamide]", "values": [{"measurement": "EC50", "setting": "C3H10T1/2 cells [1]; [3]", "value": 5.8, "unit": "µM"}, {"measurement": "Emax", "setting": "C3H10T1/2 cells [1]; [4]", "value": 94, "unit": "%"}, {"measurement": "Expression of alkaline phosphatase detected by histochemical staining (number of cells labeled)", "setting": "C3H10T1/2 cells [2]", "value": "increase in the number of cells labeled"}]}, {"smiles": "CCCCCCn1c(=O)c(C(=O)Nc2ccc(C(=O)OCCC)cc2)c(O)c2ccccc21", "note": "[Compound 1, propyl 4-(1-hexyl-4-hydroxy-2-oxo-1,2-dihydroquinoline-3-carboxamido)benzoate]", "values": [{"measurement": "EC50", "setting": "C3H10T1/2 cells [1]; [3]", "value": 1.3, "unit": "µM"}, {"measurement": "Emax", "setting": "C3H10T1/2 cells [1]; [4]", "value": 100, "unit": "%"}, {"measurement": "Expression of alkaline phosphatase detected by histochemical staining (number of cells labeled)", "setting": "C3H10T1/2 cells [2]", "value": "increase in the number of cells labeled"}]}, {"smiles": "CCCCCCn1c(=O)c(C(=O)Nc2ccc(C(=O)OC(C)C)cc2)c(O)c2ccccc21", "note": "[Compound 9, isopropyl 4-(1-hexyl-4-hydroxy-2-oxo-1,2-dihydroquinoline-3-carboxamido)benzoate]", "values": [{"measurement": "EC50", "setting": "C3H10T1/2 cells [1]; [3]", "value": 6.5, "unit": "µM"}, {"measurement": "Emax", "setting": "C3H10T1/2 cells [1]; [4]", "value": 33, "unit": "%"}]}, {"smiles": "CCCCCCn1c(=O)c(C(=O)Nc2ccc(C(=O)O)cc2)c(O)c2ccccc21", "note": "[Compound 4, 4-(1-hexyl-4-hydroxy-2-oxo-1,2-dihydroquinoline-3-carboxamido)benzoic acid]", "values": [{"measurement": "EC50", "setting": "C3H10T1/2 cells [1]; [3]", "value": 0.6, "unit": "µM"}, {"measurement": "EC50", "setting": "C3H10T1/2 cells [1]; C3H 10T1/2, 144 h, 6 days of stimulation, alkaline phosphatase activity, read-out: Affinity (activation of C3H10T1/2 cell differentiation)", "value": 0.6, "unit": "µM"}, {"measurement": "Emax", "setting": "C3H10T1/2 cells [1]; [4]", "value": 124, "unit": "%"}, {"measurement": "Emax", "setting": "C3H10T1/2 cells [1]; C3H 10T1/2, excess over compound 1, read-out: Maximum stimulation greater than that of compound 1", "value": 20, "unit": "%"}, {"measurement": "Expression of alkaline phosphatase detected by histochemical staining (number of cells labeled)", "setting": "C3H10T1/2 cells [2]", "value": "increase in the number of cells labeled"}]}, {"smiles": "CCCCCCn1c(=O)c(C(=O)Nc2ccc(C(=O)OCCCC)cc2)c(O)c2ccccc21", "note": "[Compound 5, butyl 4-(1-hexyl-4-hydroxy-2-oxo-1,2-dihydroquinoline-3-carboxamido)benzoate]", "values": [{"measurement": "EC50", "setting": "C3H10T1/2 cells [1]; [3]", "value": 1.5, "unit": "µM"}, {"measurement": "Emax", "setting": "C3H10T1/2 cells [1]; [4]", "value": 91, "unit": "%"}]}, {"smiles": "CNC1CCC(N(Cc2cccc(-c3ccncc3)c2)C(=O)c2sc3ccccc3c2Cl)CC1", "note": "(centres unmarked) [SAG, reference compound]", "values": [{"measurement": "Affinity compared with compound 1 (FIG. 3)", "setting": "C3H10T1/2 cells [1]; [5]", "value": "similar"}, {"measurement": "Maximum stimulation compared with compound 1 (FIG. 3)", "setting": "C3H10T1/2 cells [1]; [5]", "value": "lower maximum stimulation than compound 1"}]}, {"smiles": "CCCCCCn1c(=O)c(C(=O)Nc2ccc(C(=O)OCC)cc2)c(O)c2ccccc21", "note": "[Compound 3, ethyl 4-(1-hexyl-4-hydroxy-2-oxo-1,2-dihydroquinoline-3-carboxamido)benzoate]", "values": [{"measurement": "EC50", "setting": "C3H10T1/2 cells [1]; [3]", "value": 3.6, "unit": "µM"}, {"measurement": "Emax", "setting": "C3H10T1/2 cells [1]; [4]", "value": 66, "unit": "%"}]}, {"smiles": "CCCCCCn1c(=O)c(C(=O)Nc2ccc(C(=O)OC(C)(C)C)cc2)c(O)c2ccccc21", "note": "[Compound 6, tert-butyl 4-(1-hexyl-4-hydroxy-2-oxo-1,2-dihydroquinoline-3-carboxamido)benzoate]", "values": [{"measurement": "EC50", "setting": "C3H10T1/2 cells [1]; [3]", "value": 3.1, "unit": "µM"}, {"measurement": "Emax", "setting": "C3H10T1/2 cells [1]; [4]", "value": 62, "unit": "%"}, {"measurement": "Expression of alkaline phosphatase detected by histochemical staining (number of cells labeled)", "setting": "C3H10T1/2 cells [2]", "value": "increase in the number of cells labeled"}]}]}
